The numbers were not newly measured in patent US12350251B2, “Sexual health enhancement composition” (Rev Pharmaceuticals, Inc., priority 2016, dated 2025), which cites them from elsewhere.

Read-outs that look alike come from different tables or passages of the source.

Usually Cmax stands for the highest concentration seen after dosing. What is called EC50 is the midpoint of the concentration-response curve.

Assay in data set [1]: not given
The source holds these as a separate data set.

Assay in data set [2]: not given
This is another data set of the same source.

For a further data set, the system named is cAMP production. The settings on record: treated cells.
The next data set concerns human CC. The settings on record: in vitro, alone; read-out: EC50 of relaxation of human CC.

Turning to `Cl.N=C(N)NCCC[C@H](N)C(=O)O` [L-arginine hydrochloride (HCl), L-arginine hydrochloride], the Cmax (6 gm oral) is 310 µM. In addition, the Half-life runs as follows: (IV) 60 min; (PO) 90 min. For the same compound, the changes in hemodynamics entry in data set [1] (6 gm doses) is reported as “No significant changes”. In addition, the “urinary cGMP and nitrate excretion” value in data set [1] (about 6 gm to about 30 gm IV) is on record as “significant increases”. In addition, the “blood pressure and total peripheral resistance” value in data set [1] (after 30 gm IV) is “significantly decreased”.

Consider `N=C(N)NCCC[C@H](N)C(=O)O` [L-arginine], for which the “peripheral vasodilation in humans” value in data set [1] (IV infusion or oral, about 6 to about 30 gm) is given as “induced peripheral vasodilation”.

As for `C=C[C@@]1(C)CC(=O)[C@]2(O)[C@@]3(C)[C@@H](O)CCC(C)(C)[C@@H]3[C@H](O)[C@H](OC(C)=O)[C@@]2(C)O1` [forskolin], the water solubility entry in data set [2] is on record as “water soluble”. With `COc1ccc(Cc2nccc3cc(OC)c(OC)cc23)cc1OC` [papaverine], the cAMP production entry in the data set on cAMP production is recorded as “unaffected”. As to `Cc1ccc(N(CC2=NCCN2)c2cccc(O)c2)cc1` [phentolamine], in the data set with cAMP production, the cAMP production result was “unaffected”.

For the compound `CCCCC[C@H](O)/C=C/[C@H]1[C@H](O)CC(=O)[C@@H]1CCCCCCC(=O)O` [prostaglandin E1], in the data set on human CC, the EC50 was around 16 nM.
